According to PubChem BioAssay (NCI):
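Where inhibition never reached the appropriate level, the endpoint shown equals the highest concentration tested. Otherwise, values were interpolated linearly from a five-concentration, 48-hour dose response in 96-well plates. TGI is the concentration that stops growth completely.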

Key:
Assay in all cases: growth of human tumour cells (NCI), 48 h
[1] = tested on: COLO 205 colon
[2] = tested on: HCC-2998 colon
[3] = tested on: 786-0 renal
[4] = tested on: SNB-19 CNS
[5] = tested on: ACHN renal
[6] = tested on: CAKI-1 renal
[7] = tested on: T-47D breast
[8] = tested on: EKVX NSCLC
[9] = tested on: LOX IMVI melanoma
[10] = tested on: MDA-MB-435
[11] = tested on: RPMI-8226 leukemia
[12] = tested on: TK-10 renal
[13] = tested on: M14 melanoma
[14] = tested on: SF-268 CNS
[15] = tested on: CCRF-CEM leukemia
[16] = tested on: MDA-N
[17] = tested on: OVCAR-8 ovarian
[18] = tested on: OVCAR-4 ovarian
[19] = tested on: NCI/ADR-RES ovarian
[20] = tested on: MCF7 breast
[21] = tested on: SK-MEL-5 melanoma
[22] = tested on: A549 NSCLC
[23] = tested on: NCI-H460 lung
[24] = tested on: UO-31 renal
[25] = tested on: HS 578T breast
[26] = tested on: KM12 colon
[27] = tested on: DU-145 prostate
[28] = tested on: RXF 393 renal
[29] = tested on: SK-MEL-2 melanoma
[30] = tested on: SK-MEL-28 melanoma
[31] = tested on: SF-539 CNS
[32] = tested on: HT29 colon
[33] = tested on: MALME-3M melanoma
[34] = tested on: SW-620 colon
[35] = tested on: NCI-H226 lung
[36] = tested on: HCT-15 colon
[37] = tested on: SK-OV-3 ovarian
[38] = tested on: SNB-75 CNS
[39] = tested on: OVCAR-3 ovarian
[40] = tested on: HL-60(TB) leukemia
[41] = tested on: K-562 leukemia
[42] = tested on: MDA-MB-231 breast
[43] = tested on: PC-3 prostate
[44] = tested on: U251 CNS
[45] = tested on: SR leukemia
[46] = tested on: SF-295 CNS
[47] = tested on: OVCAR-5 ovarian
[48] = tested on: UACC-62 melanoma
[49] = tested on: HCT-116 colon
[50] = tested on: NCI-H23 lung
[51] = tested on: SN12C renal
[52] = tested on: HOP-92 NSCLC
[53] = tested on: HOP-62 NSCLC
[54] = tested on: MOLT-4 leukemia
[55] = tested on: UACC-257 melanoma
[56] = tested on: IGROV1 ovarian
[57] = tested on: NCI-H522 lung
[58] = tested on: A498 renal

With `Nc1nc2c(ncn2C2C=CC(COS(N)(=O)=O)C2)c(=O)[nH]1` (centres undefined) as the compound, how does the TGI [1] read?
The TGI was over 100 µM.

And the TGI [2]?
The TGI was over 100 µM.

What about the TGI [3] of the same compound?
The TGI was over 100 µM.

What about the TGI [4] of the same compound?
Its TGI is over 100 µM.

What about the TGI [5] of the same compound?
The TGI was over 100 µM.

And the TGI [6]?
The TGI was over 100 µM.

What about the TGI [7] of the same compound?
Its TGI is over 100 µM.

And the TGI [8]?
Its TGI is over 100 µM.

And the TGI [9]?
The TGI was over 100 µM.

And the TGI [10]?
Its TGI is over 100 µM.

What about the TGI [11] of the same compound?
Its TGI is over 100 µM.

What about the TGI [12] of the same compound?
The TGI was over 100 µM.

What about the TGI [13] of the same compound?
The TGI was over 100 µM.

And the TGI [14]?
Its TGI is over 100 µM.

What about the TGI [15] of the same compound?
The TGI was over 100 µM.

What about the TGI [16] of the same compound?
Its TGI is over 100 µM.

What about the TGI [17] of the same compound?
The TGI was over 100 µM.

And the TGI [18]?
Its TGI is over 100 µM.

And the TGI [19]?
Its TGI is over 100 µM.

And the TGI [20]?
The TGI was over 100 µM.

And the TGI [21]?
The TGI was over 100 µM.

And the TGI [22]?
The TGI was over 100 µM.

What about the TGI [23] of the same compound?
Its TGI is over 100 µM.

And the TGI [24]?
The TGI was over 100 µM.

What about the TGI [25] of the same compound?
The TGI was over 100 µM.

What about the TGI [26] of the same compound?
Its TGI is over 100 µM.

And the TGI [27]?
The TGI was over 100 µM.

And the TGI [28]?
The TGI was over 100 µM.

What about the TGI [29] of the same compound?
The TGI was over 100 µM.

And the TGI [30]?
The TGI was over 100 µM.

What about the TGI [31] of the same compound?
Its TGI is over 100 µM.

What about the TGI [32] of the same compound?
The TGI was over 100 µM.

And the TGI [33]?
Its TGI is over 100 µM.

And the TGI [34]?
Its TGI is over 100 µM.

And the TGI [35]?
The TGI was over 100 µM.

What about the TGI [36] of the same compound?
Its TGI is over 100 µM.

What about the TGI [37] of the same compound?
The TGI was over 100 µM.

What about the TGI [38] of the same compound?
Its TGI is over 100 µM.

And the TGI [39]?
Its TGI is over 100 µM.

And the TGI [40]?
The TGI was over 100 µM.

And the TGI [41]?
The TGI was over 100 µM.

And the TGI [42]?
The TGI was over 100 µM.

And the TGI [43]?
Its TGI is over 100 µM.

And the TGI [44]?
The TGI was over 100 µM.

What about the TGI [45] of the same compound?
Its TGI is over 100 µM.

What about the TGI [46] of the same compound?
Its TGI is over 100 µM.

And the TGI [47]?
Its TGI is over 100 µM.

What about the TGI [48] of the same compound?
Its TGI is over 100 µM.

And the TGI [49]?
Its TGI is over 100 µM.

And the TGI [50]?
The TGI was over 100 µM.

What about the TGI [51] of the same compound?
The TGI was over 100 µM.

What about the TGI [52] of the same compound?
The TGI was over 100 µM.

And the TGI [53]?
Its TGI is over 100 µM.

And the TGI [54]?
The TGI was over 100 µM.

What about the TGI [55] of the same compound?
Its TGI is over 100 µM.

And the TGI [56]?
The TGI was over 100 µM.

For `COc1ccc(C=C2C(=O)NC(=S)NC2=O)c2ccccc12`, which TGI [2] is on record?
The TGI was over 100 µM.

And the TGI [3]?
The TGI was over 100 µM.

What about the TGI [5] of the same compound?
Its TGI is over 100 µM.

What about the TGI [6] of the same compound?
Its TGI is over 100 µM.

And the TGI [7]?
Its TGI is over 100 µM.

And the TGI [8]?
The TGI was over 100 µM.

What about the TGI [9] of the same compound?
The TGI was over 100 µM.

And the TGI [10]?
The TGI was over 100 µM.

What about the TGI [11] of the same compound?
The TGI was over 100 µM.

What about the TGI [12] of the same compound?
The TGI was 58.2 µM.

What about the TGI [13] of the same compound?
Its TGI is over 100 µM.

And the TGI [14]?
The TGI was over 100 µM.

And the TGI [15]?
Its TGI is over 100 µM.

And the TGI [16]?
The TGI was 40.6 µM.

And the TGI [17]?
The TGI was over 100 µM.

What about the TGI [18] of the same compound?
The TGI was over 100 µM.

And the TGI [19]?
The TGI was over 100 µM.

And the TGI [20]?
Its TGI is over 100 µM.

And the TGI [21]?
Its TGI is over 100 µM.

And the TGI [23]?
Its TGI is over 100 µM.

What about the TGI [24] of the same compound?
Its TGI is over 100 µM.

What about the TGI [25] of the same compound?
Its TGI is 60.9 µM.

What about the TGI [26] of the same compound?
The TGI was over 100 µM.

What about the TGI [27] of the same compound?
Its TGI is 64.7 µM.

What about the TGI [28] of the same compound?
Its TGI is 51.1 µM.

What about the TGI [29] of the same compound?
Its TGI is 66.5 µM.

What about the TGI [30] of the same compound?
Its TGI is over 100 µM.

And the TGI [31]?
Its TGI is 57.7 µM.

What about the TGI [32] of the same compound?
The TGI was 77.3 µM.

And the TGI [57]?
Its TGI is over 100 µM.

And the TGI [34]?
The TGI was over 100 µM.

And the TGI [35]?
The TGI was 0.7 µM.

What about the TGI [36] of the same compound?
Its TGI is over 100 µM.

What about the TGI [37] of the same compound?
The TGI was over 100 µM.

And the TGI [39]?
The TGI was 75.7 µM.

And the TGI [40]?
Its TGI is 52 µM.

And the TGI [41]?
Its TGI is over 100 µM.

And the TGI [42]?
Its TGI is over 100 µM.

And the TGI [43]?
The TGI was 83.3 µM.

And the TGI [44]?
Its TGI is 83.3 µM.

What about the TGI [45] of the same compound?
Its TGI is 87.1 µM.

What about the TGI [46] of the same compound?
Its TGI is over 100 µM.

What about the TGI [47] of the same compound?
The TGI was over 100 µM.

And the TGI [49]?
Its TGI is over 100 µM.

And the TGI [50]?
The TGI was over 100 µM.

What about the TGI [52] of the same compound?
The TGI was over 100 µM.

And the TGI [53]?
The TGI was over 100 µM.

And the TGI [58]?
The TGI was 0.479 µM.

And the TGI [54]?
Its TGI is over 100 µM.

And the TGI [55]?
The TGI was 41.5 µM.

What about the TGI [56] of the same compound?
The TGI was over 100 µM.

What does the source list for `COc1ccc2cc(C(=O)NCCCNC(=O)c3ccc4c(OC)c(OC)ccc4c3)ccc2c1OC`?
TGI [1]: > 100 µM; TGI [2]: > 100 µM; TGI [3]: > 100 µM; TGI [4]: > 100 µM; TGI [5]: > 100 µM; TGI [6]: > 100 µM; TGI [7]: > 100 µM; TGI [8]: > 100 µM; TGI [9]: > 100 µM; TGI [10]: > 100 µM; TGI [11]: > 100 µM; TGI [14]: > 100 µM; TGI [15]: > 100 µM; TGI [16]: > 100 µM; TGI [18]: > 100 µM; TGI [19]: > 100 µM; TGI [20]: > 100 µM; TGI [21]: > 100 µM; TGI [22]: > 100 µM; TGI [23]: > 100 µM; TGI [24]: > 100 µM; TGI [26]: > 100 µM; TGI [27]: > 100 µM; TGI [28]: > 100 µM; TGI [29]: > 100 µM; TGI [30]: > 100 µM; TGI [32]: > 100 µM; TGI [57]: > 100 µM; TGI [34]: > 100 µM; TGI [36]: > 100 µM; TGI [37]: > 100 µM; TGI [39]: > 100 µM; TGI [41]: > 100 µM; TGI [42]: > 100 µM; TGI [43]: > 100 µM; TGI [44]: > 100 µM; TGI [45]: > 100 µM; TGI [46]: > 100 µM; TGI [47]: > 100 µM; TGI [48]: > 100 µM; TGI [49]: > 100 µM; TGI [50]: > 100 µM; TGI [51]: > 100 µM; TGI [53]: > 100 µM; TGI [58]: > 100 µM; TGI [54]: > 100 µM; TGI [55]: > 100 µM
